Here are results for 22 compounds from US9546138B2, “Pyridone derivatives and uses thereof in the treatment of tuberculosis” (priority 2012, dated 2017).

What all share (assay): microbe, parasite or virus in culture
Common to all, as to format: cell-based

Test [1] concerns Mycobacterium tuberculosis H37Rv (ATCC #27294).
Test [2] relates to BCG WT (WT inhA). As to conditions: Mycobacterium tuberculosis variant bovis BCG, read-out: Compound MIC50.
For test [3], the system named is M. smeg WT (WT inhA). As to conditions: Mycolicibacterium smegmatis, strain M. smeg WT, read-out: Compound MIC50.

Each structure is given as a SMILES string. In brackets after ≈: the same amount, converted by molar mass. Read-outs that look alike come from different tables or passages of the source. Some results are limits rather than exact numbers.

Regarding `CC(C)Cc1cc(O)c(-c2ccccc2)c(=O)n1C` [PD19, 4-hydroxy-6-isobutyl-1-methyl-3-phenylpyridin-2(1H)-one], in test [1] (120 h, read-out: MTB MIC50), the MIC50 amounted to 8.14 µM (≈ 2.09 µg/mL). With `CC(C)Cc1cc(O)c(-c2cccc(Cl)c2)c(=O)[nH]1` [PD14, 3-(3-chlorophenyl)-4-hydroxy-6-isobutylpyridin-2(1H)-one], in test [1] (120 h, read-out: MTB MIC50), the MIC50 was 2.67 µM (≈ 0.742 µg/mL). Still for that read-out and setting: the same measure for `O=c1[nH]c(CC2CCC(F)(F)CC2)cc(O)c1-c1ccccc1` [PD9, 6-((4,4-difluorocyclohexyl)methyl)-4-hydroxy-3-phenylpyridin-2(1H)-one]: 1.32 µM (≈ 0.422 µg/mL); for `CC(C)(C)Cc1cc(O)c(-c2ccccc2)c(=O)[nH]1` [PD8, 4-hydroxy-6-neopentyl-3-phenylpyridin-2(1H)-one]: 10 µM (≈ 2.58 µg/mL); for `CC(C)Cc1cc(O)c(-c2ccc(F)cc2)c(=O)[nH]1` [PD15, 3-(4-fluorophenyl)-4-hydroxy-6-isobutylpyridin-2(1H)-one]: 6.75 µM (≈ 1.76 µg/mL). In the case of `O=c1[nH]c(CC2CC2)cc(O)c1-c1ccccc1` [PD3, 6-(cyclopropylmethyl)-4-hydroxy-3-phenylpyridin-2(1H)-one], the MIC50 in test [1] (120 h, read-out: MTB MIC50) came out at 4.53 µM (≈ 1.09 µg/mL). Take `CC(C)Cc1[nH]c(=O)c(-c2ccccc2)c(O)c1C(N)=O` [PD13, 4-hydroxy-2-isobutyl-6-oxo-5-phenyl-1,6-dihydropyridine-3-carboxamide]: in test [1] (120 h, read-out: MTB MIC50), the MIC50 turned out to be 18.7 µM (≈ 5.35 µg/mL). On the same count and under the same terms, next, `CC(C)Cc1cc(O)c(-c2cccc(F)c2)c(=O)[nH]1` [PD18, 3-(3-fluorophenyl)-4-hydroxy-6-isobutylpyridin-2(1H)-one]: 2.69 µM (≈ 0.703 µg/mL); `O=c1[nH]c(CC2CCC2)cc(O)c1-c1ccccc1` [PD5, 6-(cyclobutylmethyl)-4-hydroxy-3-phenylpyridin-2(1H)-one]: 1.19 µM (≈ 0.304 µg/mL); `O=c1[nH]c(Cc2ccccc2)cc(O)c1-c1ccccc1` [PD1, 6-benzyl-4-hydroxy-3-phenylpyridin-2(1H)-one]: 1.4 µM (≈ 0.388 µg/mL). On to `CCc1cc(C(N)=S)ccn1` [Ethionamide, reference compound], for which the values for the MIC50 in test [2] (BCG), in test [1] (read-out: Compound MIC50) and in test [3] were 17 µM (≈ 2.83 µg/mL), 1.66 µM (≈ 0.276 µg/mL) and more than 20 µM, respectively. Consider `CC(C)CCc1cc(O)c(-c2ccccc2)c(=O)[nH]1` [PD7, 4-hydroxy-6-isopentyl-3-phenylpyridin-2(1H)-one], for which, in test [1] (120 h, read-out: MTB MIC50), the MIC50 was 1.51 µM (≈ 0.389 µg/mL). `CC1(C)CCC(Cc2cc(O)c(-c3ccccc3)c(=O)[nH]2)CC1` [PD10, 6-((4,4-dimethylcyclohexyl)methyl)-4-hydroxy-3-phenylpyridin-2(1H)-one]: the MIC50 in test [2] (strain BCG WT, WT inhA) came out at 0.02 µM (≈ 0.00623 µg/mL); in test [1] (120 h, read-out: MTB MIC50), 0.02 µM (≈ 0.00623 µg/mL); in test [1] (read-out: Compound MIC50), 0.05 µM (≈ 0.0156 µg/mL); in test [3] it was 0.4 µM (≈ 0.125 µg/mL).

Take `O=c1[nH]c(CC2CCCCC2)cc(O)c1-c1ccccc1` [PD2, 6-(cyclohexylmethyl)-4-hydroxy-3-phenylpyridin-2(1H)-one]: the MIC50 in test [1] (120 h, read-out: MTB MIC50) came out at 0.22 µM (≈ 0.0623 µg/mL); in test [1] (read-out: Compound MIC50), 0.16 µM (≈ 0.0453 µg/mL). For the compound `CC(C)Cc1cc(O)c(-c2ccc(F)cc2F)c(=O)[nH]1` [PD17, 3-(2,4-difluorophenyl)-4-hydroxy-6-isobutylpyridin-2(1H)-one], the MIC50 in test [1] (120 h, read-out: MTB MIC50) was 9.18 µM (≈ 2.56 µg/mL). Consider `CC1(C)CCC(Cc2cc(OCOP(=O)(O)O)c(-c3ccccc3)c(=O)[nH]2)CC1` [PD21, ((6-((4,4-dimethylcyclohexyl)methyl)-2-oxo-3-phenyl-1,2-dihydropyridin-4-yl)oxy)methyl dihydrogen phosphate], for which the MIC50 in test [1] (120 h, read-out: MTB MIC50) turned out to be 3.99 µM.

Turning to `O=c1[nH]c(CC2CCCC2)cc(O)c1-c1ccccc1` [PD4, 6-(cyclopentylmethyl)-4-hydroxy-3-phenylpyridin-2(1H)-one], in test [1] (120 h, read-out: MTB MIC50), the MIC50 amounted to 0.92 µM (≈ 0.248 µg/mL).

Regarding `NNC(=O)c1ccncc1` [Isoniazid, isoniazid, reference compound], the MIC50 was 0.3 µM (≈ 0.0411 µg/mL) in test [2] (strain BCG WT, WT inhA); 0.25 µM (≈ 0.0343 µg/mL) in test [1] (read-out: Compound MIC50); more than 20 µM in test [3]. `O=c1[nH]c(Cc2ccncc2)cc(O)c1-c1ccccc1` [PD11, 4-hydroxy-3-phenyl-6-(pyridin-4-ylmethyl)pyridin-2(1H)-one]: the MIC50 in test [1] (120 h, read-out: MTB MIC50) stood at 6.08 µM (≈ 1.69 µg/mL). In the case of `CC(C)Cc1cc(O)c(-c2ccccc2)c(=O)[nH]1` [PD12, 4-hydroxy-6-isobutyl-3-phenylpyridin-2(1H)-one], the MIC50 in test [2] (strain BCG WT, WT inhA) was 0.37 µM (≈ 0.09 µg/mL); in test [1] (120 h, read-out: MTB MIC50), 1.9 µM (≈ 0.462 µg/mL); in test [1] (read-out: Compound MIC50), 1.54 µM (≈ 0.375 µg/mL); in test [3] it was 0.67 µM (≈ 0.163 µg/mL).

With `CC1(C)CCC(Cc2cc(OP(=O)(O)O)c(-c3ccccc3)c(=O)[nH]2)CC1` [PD22, 6-((4,4-dimethylcyclohexyl)methyl)-2-oxo-3-phenyl-1,2-dihydropyridin-4-yl dihydrogen phosphate], the MIC50 in test [1] (120 h, read-out: MTB MIC50) turned out to be 1.72 µM. With `O=c1[nH]c(CC2CCOCC2)cc(O)c1-c1ccccc1` [PD6, 4-hydroxy-3-phenyl-6-((tetrahydro-2H-pyran-4-yl)methyl)pyridin-2(1H)-one], the MIC50 in test [1] (120 h, read-out: MTB MIC50) came out at 10.1 µM (≈ 2.88 µg/mL).
